In PubChem BioAssay (NCI) one finds TGI and GI50 data, which are given here for 20 molecules.

Common to all, as to experiment: DTP human tumour cell line panel, 48 h
Experiment [1] deals with BT-549 breast.
Experiment [2] concerns NCI-H460 lung.
The test system of experiment [3] is SNB-75 CNS.
In experiment [4] the test system is SF-268 CNS.
The test system of experiment [5] is A498 renal.
The subject of experiment [6] is NCI/ADR-RES ovarian.
The test system of experiment [7] is OVCAR-5 ovarian.
The test system of experiment [8] is SK-MEL-5 melanoma.
Experiment [9] concerns SF-295 CNS.
Experiment [10] deals with SN12C renal.

Several values for one entry are separate records, joined by “and”; a condition that tells them apart may be missing. Equal entries are not always repeated.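 Exposure lasted 48 hours, with cells grown in 96-well plates and compounds tested at five concentrations. GI50 = concentration required for 50% inhibition of growth. TGI denotes the concentration required for complete inhibition of growth.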

With `Cn1c(=O)oc2cc(C(=S)N3CCCCC3)ccc21`, the total growth inhibition concentration (TGI) in experiment [1], in [2], in experiment [3], in experiment [4], in experiment [5] and in [6] was over 100 µM throughout. Besides, the TGI in [7], in [8], in [9] and in [10] was over 100 µM throughout.
On to `Clc1ccc(Nc2nnc(CNc3ccc(-c4nnc(Nc5ccc(Cl)cc5)o4)cc3)o2)cc1`, for which the TGI (commonly the concentration giving total growth inhibition) was 38.6 µM in experiment [1]; 41.6 µM in experiment [2]; 45.1 µM in [3]; 73.9 µM in experiment [4]; 28.9 µM in experiment [5]; over 77.9 µM in experiment [6]. Also, the TGI in [7] turned out to be 40.7 µM; in [8] it was 33.4 µM; in experiment [9] it was 38.4 µM; in experiment [10] it was 36.9 µM.
`COC(=O)CN(CC1O[C@@H]2OC(C)(C)O[C@@H]2C1NC(C)=O)C(=O)OCc1ccccc1` (stereo not given in full): the TGI in experiment [1], in [2], in experiment [3], in experiment [4], in [5] and in experiment [6] was over 100 µM in each case. The total growth inhibition concentration (TGI) in experiment [7], in experiment [8], in experiment [9] and in experiment [10] was over 100 µM throughout.
In the case of `N#Cc1c(O)c(C=O)c(=O)n2c1[nH]c1ccccc12`, the TGI in experiment [1], in experiment [2], in [3], in experiment [4], in experiment [5] and in experiment [6] was over 100 µM throughout. Further, the TGI in experiment [7], in [8], in experiment [9] and in experiment [10] was over 100 µM throughout.
Regarding `CN1C(=O)[C@@H]2[C@@H]3c4ccccc4N[C@@H]3c3[nH]c4ccccc4c3[C@@H]2C1=O`, the TGI stood at 53.6 µM in experiment [1]; 31.4 µM in experiment [2]; 85.8 µM in experiment [3]; 92.6 µM in experiment [4]; 65.3 µM in experiment [5]; 52 µM in experiment [6]. The TGI is 64.2 µM in experiment [7], 25 µM in experiment [8], 47 µM in [9] and over 100 µM in experiment [10].
As for `O=C(CBr)NCCc1c[nH]c2ccccc12`, the TGI in [1] was determined as 3.83 µM; in [2] it was 15 µM; in experiment [3], 3.12 µM; in [4], 7.59 µM; in experiment [5], 41.2 µM; in experiment [6], 6.96 µM. Further, the TGI is 3.47 µM in [7], 2.46 µM in [8], 28.6 µM in experiment [9] and 2.65 µM in experiment [10].
As to `O=C1C(c2c(O)[nH]c3ccc(I)cc23)=Nc2ccccc21`, the TGI in experiment [1] is 29.2 µM; in experiment [2] it was over 88.6 µM; in [3], 17 µM; in [4], 17.2 µM; in [5], 5.57 µM; in experiment [6], over 100 µM. Moreover, the TGI in [7] was 57.1 µM; in experiment [8], 10.8 µM; in experiment [9], over 64.4 µM; in experiment [10], over 74.1 µM.
Regarding `COC(=O)C1=C(C)NC2=C(C(=O)c3ccccc32)C1c1cn[nH]c1-c1ccccc1` (stereo not given), the TGI in experiment [1], in experiment [2], in experiment [3], in experiment [4], in experiment [5] and in [6] was over 100 µM each time. Also, the TGI in [7], in [8], in experiment [9] and in experiment [10] was over 100 µM each time.
On to `CCN(CCN(CC)C(=O)NC)C(=O)NC`, for which the TGI in [1], in [2], in [3], in [4], in [5] and in [6] was over 100 µM each time. Besides, the TGI in [7], in experiment [8], in experiment [9] and in experiment [10] was over 100 µM throughout.
As to `NC(CS)C(=O)NCCNc1ccc(NCCNC(=O)C(N)CS)c2c1C(=O)c1c(O)ccc(O)c1C2=O` (stereo not given), the TGI in [1] is 1.42 µM; in experiment [2], 0.208 µM and 0.125 µM; in experiment [3], 0.2 µM and 0.206 µM; in [4] it was 0.953 µM; in experiment [5] it was 0.344 µM; in experiment [6], 1.03 µM. For the same molecule, the TGI is 1.58 µM and 0.718 µM in experiment [7]; 1.33 µM and 0.373 µM in [8]; 0.276 µM and 0.0386 µM in experiment [9]; 0.0822 µM and 0.0691 µM in [10]. For the same molecule, the GI50 (commonly the concentration at which growth is held to half of that of the control) in experiment [3] is 0.0146 µM; in [7], 0.0756 µM; in [8], 0.0231 µM.
Consider `CC1(C)OC2OC(C(=O)c3ccccc3)C3OC(C)(C)OC3C2O1` (stereo not given), for which the TGI in experiment [1], in experiment [2], in experiment [3], in experiment [4], in [5] and in experiment [6] was over 100 µM throughout. In addition, the TGI in [7], in [8], in experiment [9] and in [10] was over 100 µM throughout.
For `O=C1C=CC(=O)[C@H]2C3C=CC(C4C3C3(Cl)C(Cl)=C(Cl)[C@]4(Cl)C3(Cl)Cl)[C@@H]12` (stereo not given in full), the TGI was found to be 19.2 µM in [1]; 15.9 µM in experiment [2]; 25 µM in [3]; 18.4 µM in experiment [4]; 31.7 µM in [5]; 17.4 µM in [6]. The TGI in experiment [7] is 19.7 µM; in [8], 15.3 µM; in experiment [9] it was 25.2 µM; in experiment [10], 18.2 µM.
Consider `Nc1nc(N)c2nc(CNc3ccc(C(=O)NC(CCNC(=O)c4ccccc4C(=O)O)C(=O)O)cc3)cnc2n1` (stereo not given), for which the TGI in experiment [1], in experiment [2], in experiment [3], in experiment [4], in experiment [5] and in experiment [6] was over 100 µM each time. For the same molecule, the TGI in experiment [7], in [8], in experiment [9] and in [10] was over 100 µM in each case. The GI50 in experiment [2] is 0.0144 µM; in experiment [4] it was 0.169 µM; in experiment [7], 0.0863 µM; in experiment [8], 0.0853 µM; in [10] it was 0.102 µM.
Take `COc1cc(/C=C/c2ccc(S(N)(=O)=O)cc2)cc(OC)c1`: the GI50 in experiment [1] was 10.7 µM; in experiment [4], 28.3 µM. The TGI in experiment [1] was 41.1 µM; in experiment [2] it was 42.9 µM; in [3], 53.1 µM; in experiment [4], over 100 µM; in [5], 39.5 µM; in [6], 89.7 µM. Besides, the TGI in [7] was over 100 µM; in experiment [8] it was 29.8 µM; in experiment [9], 55.5 µM; in experiment [10], 55.2 µM.
On to `N#CCN1CCCN(CC#N)CCN(CC#N)CCCN(CC#N)CC1`, for which the TGI in [1], in experiment [2], in experiment [3], in experiment [4], in experiment [5] and in experiment [6] was over 100 µM throughout. Also, the TGI in experiment [7], in [8], in experiment [9] and in experiment [10] was over 100 µM each time.
In the case of `CN(C)C1(c2cc3ccccc3s2)CCCCC1`, the TGI in [1] is over 100 µM; in experiment [2], over 100 µM; in [3], over 100 µM; in experiment [4], 52 µM; in experiment [5], over 100 µM; in experiment [6], over 100 µM. In addition, the TGI in [7] is over 100 µM; in experiment [8], 33.3 µM; in [9], over 100 µM; in experiment [10], over 100 µM.
In the case of `CC1=C(C(=O)NCCCN(CCO)CCO)CC(C(=O)NCCCN(CCO)CCO)=C(C)N1`, the TGI was over 100 µM in experiment [1]; over 100 µM in experiment [2]; 80 µM in experiment [3]; over 100 µM in experiment [4]; over 100 µM in [5]; over 100 µM in experiment [6]. In addition, the TGI is over 100 µM in [7], 95.7 µM in [8], over 100 µM in [9] and over 100 µM in experiment [10].
Regarding `CN(C)CCCN=c1c2ccccc2n(C)c2[nH]c(=O)n(C)c(=O)c12`, the TGI is 36.8 µM in experiment [1]; 11.5 µM in experiment [2]; 21.5 µM in experiment [3]; over 46.6 µM in experiment [4]; 38 µM in experiment [5]; over 100 µM in experiment [6]. For the same molecule, the TGI is 43.7 µM in experiment [7], 18.4 µM in experiment [8], 32.5 µM in [9] and over 51.6 µM in experiment [10].
With `COc1cc(C2c3cc4c(cc3OC(NNc3ccccc3)C2C)OCO4)cc(OC)c1O` (stereo not given), the TGI in [1] amounted to 28 µM; in experiment [2] it was 17.7 µM; in experiment [3], 7.56 µM; in experiment [4], 27.4 µM; in experiment [5], 16.3 µM; in experiment [6] it was 11.1 µM. The TGI in experiment [7] was 18 µM; in [8], 3.68 µM; in experiment [9], 11.3 µM; in experiment [10], 4.63 µM.
Turning to `CCOC(=O)C1=C(C)N(c2ccc(Cl)cc2)C2(O)C=CC(Nc3ccc(Cl)cc3)=C3C(=O)N(c4ccccc4)C(=O)C312` (stereo not given), the TGI is 4.69 µM in experiment [1]; 13.7 µM in experiment [2]; 20.3 µM in [3]; 20.1 µM in experiment [4]; 9.33 µM in [5]; 12.7 µM in [6]. The TGI in experiment [7] worked out at 21.3 µM; in experiment [8] it was 11 µM; in experiment [9], 13.8 µM; in experiment [10] it was 13.4 µM.
